Assay results reported in US9889183B2, “PKC activators and anticoagulant in regimen for treating stroke” (BLANCHETTE ROCKEFELLER NEUROSCIENCES INSTITUTE, priority 2010, dated 2018).

Columns and labels:
PKCε = molecular target: T1, PKCε (Homo sapiens, UniProt Q02156); assay: PKC assay with purified PKCε; format: biochemical
T1 construct: purchased Calbiochem
T1 sequence (Q02156 1-737): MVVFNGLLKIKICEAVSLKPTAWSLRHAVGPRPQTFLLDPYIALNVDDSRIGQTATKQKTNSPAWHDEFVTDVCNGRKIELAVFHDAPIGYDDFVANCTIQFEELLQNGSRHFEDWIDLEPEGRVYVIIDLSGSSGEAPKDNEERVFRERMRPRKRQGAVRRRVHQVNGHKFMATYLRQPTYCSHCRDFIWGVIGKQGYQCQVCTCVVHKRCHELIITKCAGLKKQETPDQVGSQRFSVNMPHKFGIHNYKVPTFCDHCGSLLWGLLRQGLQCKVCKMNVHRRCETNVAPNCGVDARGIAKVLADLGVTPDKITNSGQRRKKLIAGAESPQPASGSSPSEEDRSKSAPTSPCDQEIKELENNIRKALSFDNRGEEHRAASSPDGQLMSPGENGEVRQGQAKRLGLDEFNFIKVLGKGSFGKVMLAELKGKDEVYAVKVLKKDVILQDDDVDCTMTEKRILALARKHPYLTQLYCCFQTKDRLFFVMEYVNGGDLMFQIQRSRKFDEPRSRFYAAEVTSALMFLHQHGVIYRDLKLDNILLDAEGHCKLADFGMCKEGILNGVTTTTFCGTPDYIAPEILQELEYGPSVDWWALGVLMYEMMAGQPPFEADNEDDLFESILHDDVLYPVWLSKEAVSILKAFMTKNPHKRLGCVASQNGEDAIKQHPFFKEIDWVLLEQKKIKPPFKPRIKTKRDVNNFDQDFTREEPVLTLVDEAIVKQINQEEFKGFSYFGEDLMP
Method: PKC assay. Recombinant PKC (1 ng of PKCα or PKCε isoform) was mixed with BR-101 (DCP-LA) in the presence of 10 micromolar histones, 5 mM CaCl2, 1.2 μg/μl phosphatidyl-L-serine, 0.18 μg/μl 1,2-dioctanoyl-sn-glycerol (DAG), 10 mM MgCl2, 20 mM HEPES (pH 7.4), 0.8 mM EDTA, 4 mM EGTA, 4% glycerol, 8 μg/ml aprotinin, 8 μg/ml leupeptin, and 2 mM benzamidine. 0.5 micro Ci[^γ32P]ATP was added. The incubation mixture was incubated for 15 min at 37 degrees in a total volume of 10 microliters. The reaction was stopped by spotting the reaction mixtures on 1×2 cm strips of cellulose phosphate paper (Whatman P81) and immediately washing twice for 1 hr in 0.5% H3PO4. The cellulose phosphate strips were counted in a scintillation counter. In some experiments, phosphatidylserine, diacylglycerol, and/or calcium were removed.
DHA methyl ester was purchased from Cayman Chemical (Ann Arbor, Me.). PKC isozymes were from Calbiochem (San Diego, Calif.). Purified PKCε was purchased from Calbiochem.
Protein kinase C assay. Rat hippocampal cells were cultured and scraped in 0.2 ml homogenization buffer (20 mM Tris-HCl, pH 7.4, 50 mM NaF, 1 μg/ml leupeptin, and 0.1 mM PMSF) and homogenized by sonication a Marsonix microprobe sonicator (5 sec, 10 W). To measure PKC, 10 μl of cell homogenate or purified PKC isozyme (purchased from Calbiochem) was incubated for 15 min at 37° C. in the presence of 10 μM histones, 4.89 mM CaCl2, 1.2 μg/μl phosphatidyl-L-serine, 0.18 μg/μl 1,2-dioctanoyl-sn-glycerol, 10 mM MgCl2, 20 mM HEPES (pH 7.4), 0.8 mM EDTA, 4 mM EGTA, 4% glycerol, 8 μg/ml aprotinin, 8 μg/ml leupeptin, and 2 mM benzamidine. […][^γ32P]ATP was added and ^32P-phosphoprotein formation was measured by adsorption onto phosphocellulose as described previously. Nelson and Alkon, J. Neurochemistry (1995), vol. 65, pp. 2350-2357. For measurements of activation by BR-101 (DCP-LA) and similar compounds. PKC activity was measured in the absence of diacylglycerol and phosphatidylserine and PKC δ, ε, η, and μ were measured in the absence of added EGTA and CaCl2, as described by Kanno et al. (J. Lipid Res. 2006, vol. 47, pp. 1146-1150). Low concentrations of Ca^2+ are used because high Ca^2+ interacts with the PKC phosphatidylserine binding site and prevents activation. For measurements of bryostatin activation, 1,2-diacylglycerol was omitted unless otherwise stated.
To determine their PKC isozyme specificity, fatty acid derivatives were preincubated with purified PKC for five minutes and the PKC activity was measured radiometrically.

TACE in primary neurons = assay: TACE assay, rat primary neurons; format: cell-based; conditions: FIG. 13b and 13c
Method: FIGS. 13a, 13b and 13c show effects of (FIG. 13a) bryostatin, BR-101 (DCP-LA) and BR-111 (DHA-CP6) on TACE activity in N2a neuroblastoma cells transfected with human APPSwe/PS1D; (FIG. 13b) various concentrations of bryostatin on TACE activity in rat cortical primary neurons; and (FIG. 13c) BR-111 (DHA-CP6) on TACE activity in rat cortical primary neurons.
TACE Assay. TACE was measured by incubating 5 μl cell homogenate, 3 μl buffer (50 mM Tris-HCl 7.4 plus 25 mM NaCl plus 4% glycerol), and 1 μl of 100 μM TACE substrate (Aβz-[…]-DPa) (Calbiochem) for 20 min at 37° C. 1.5-ml polypropylene centrifuge tubes. Jin et al., Anal. Biochem. (2002), vol. 302, pp. 269-275. The reaction was stopped by cooling to 4° C. The samples were diluted to 1 ml and the fluorescence was rapidly measured (ex=320 nm, em=420 nm) in a Spex Fluorolog 2 spectrofluorometer.
Buxbaum et al., J Biol. Chem. (1998), vol. 273, pp. 27765-27767; Etcheberrigaray et al., Proc. Natl. Acad. Sci. USA (2006), vol. 103, pp. 8215-8220. However, many of these earlier studies were carried out in fibroblasts and other non-neuronal cell types, which appear to respond differently to PKC activators than neurons.

[1] = test system: ischemic stroke (middle cerebral artery occlusion) in rats; assay: Focal ischemia (MCAO) model of stroke; format: in vivo, rat
Method: A transient animal model of focal ischemia was used for these experiments. The middle cerebral artery (MCA) was surgically dissected and occluded in anesthetized rats by ligature, followed by reperfusion after a defined period (about 2 hours). Animal models transient ischemia via occlusion of the MCA (MCAO) are well-known and described in, e.g., Sicard and Fisher, Exp. & Transl. Stroke Med. (2009), vol. 1, pp. 1-7.

[2] = rTPA at 2 hours followed 6 hours later with bryostatin-1, vs rTPA alone

SMILES | activation of PKCε (in words) (PKCε; at 10 μM) | TACE activity (TACE in primary neurons) | concentration needed to activate PKC relative to BR-101 (DCP-LA) (PKCε) | activation of purified PKCε (in words) (PKCε; FIG. 7, methyl esters) | brain edema ([1]; bryostatin-1 2 hours after stroke, rTPA 6 hours later, vs rTPA alone) | reduction of assayed hemoglobin in the cortex and striatum ([1]; bryostatin-1 2 hours after stroke, rTPA 6 hours later, vs rTPA at 6 hours alone) [%] | mortality 24 hours later ([1]; rTPA 6 hours after the stroke, followed 2 hours later with bryostatin-1, rats) [%] | uptake of Evans Blue dye in ipsilateral and contralateral cortices (BBB permeability) [1, 2] | uptake of NaF in ipsilateral and contralateral cortices [1, 2]
CCCCCC1CC1CC1CC1CCCCCCCC(=O)O (stereo not shown) [BR-101, 2-[(2-pentylcyclopropyl)methyl]cyclopropaneoctanoic acid] | effective activator | – | – | – | – | – | – | – | –
CCC1CC1CC1CC1CC1CC1CC1CC1CC1CC1CC1CC1CCC(=O)OC (stereo not shown) [BR-111, methyl-3-(2-((2-((2-((2-((2-((2-ethylcyclopropyl)methyl)cyclopropyl)methyl)cyclopropyl)methyl)-cyclopropyl)methyl)cyclopropyl)methyl)cyclopropyl)propanoate] | – | small increases | approximately 100 times lower | activated purified PKCε to a similar extent | – | – | – | – | –
CCC/C=C/C=C/C(=O)O[C@H]1/C(=C/C(=O)OC)C[C@H]2C[C@H]([C@@H](C)O)OC(=O)C[C@H](O)C[C@@H]3C[C@H](OC(C)=O)C(C)(C)[C@](O)(C[C@@H]4C/C(=C/C(=O)OC)C[C@H](/C=C/C(C)(C)[C@]1(O)O2)O4)O3 [Bryostatin-1, bryostatin-1] | – | small increases | – | – | significantly reduced | 50 | 0 | significantly reduced | reduced
